# From patent US20230255943A1, “MMP-9 AND MMP-12 INHIBITION FOR TREATING SPINAL CORD INJURY OR RELATED INJURY TO NEUROLOGICAL TISSUE” (The University of Birmingham, priority 2020, published 2023)
# Tests used:
# [1] = tested on: mice with DC crush injury; assay: Immunohistochemistry of CD11b, CD68 and GFAP at lesion site; format: in vivo, mouse; details: immediate or delayed by 24 h
# Text: After killing animals by exposure to rising concentrations of CO2, mice were intracardially perfused with 4% formaldehyde (TAAB Laboratories, Berkshire, UK) in 0.1M phosphate buffered saline (PBS). The lesion site+5 mm either side were dissected out, post-fixed in 4% formaldehyde and subjected to a graded series of sucrose solutions for cryoprotection. Spinal cords were blocked in OCT mounting compound (TAAB laboratories), sectioned longitudinally at 15 μm-thick using a cryostat (Brights Instruments, Huntingdon, UK) before being collected on charged glass slides (ThermoFisher Scientific, Loughborough, UK) and kept at −20° C. until required. Slides were numbered consecutively and sections from the middle of the lesion site were chosen for all immunohistochemical analyses, as described by previously (Surey S, Berry M, Logan A, Bicknell R, Ahmed Z. Differential cavitation, angiogenesis and wound-healing responses in injured mouse and rat spinal cords. Neuroscience 2014; 275: 62-80).
# Fluorescent immunohistochemistry was performed as described previously (S. Surey, M. Berry, A. Logan, R. Bicknell, Z. Ahmed, Differential cavitation, angiogenesis and wound-healing responses in injured mouse and rat spinal cords. Neuroscience 275, 62-80 (2014)). […] Laminin was detected at 4 weeks after DC injury and treatment using a rabbit polyclonal anti-laminin primary antibody (ab11575; 1:400 dilution, Abcam). Macrophages were detected with a rabbit polyclonal anti-CD68 antibody (ab1525212; 1:500 dilution, Abcam); microglia were detected using a rabbit polyclonal antibody to CD11b (ab128797, 1:500 dilution, Abcam); GFAP was detected using a polyclonal anti-GFAP antibody (SAB5700611, 1:400 dilution, Sigma) were all detected at 10 days after DC injury and treatment. Semaphorin-3A (Sema-3A) and chondroitin sulphate proteoglycan (CSPG) was detected using monoclonal anti-CS-56 antibody (C8035; 1:200 dilution, Sigma) at 7 days after injury. […] CTB labelled axons in the mouse were detected using a goat polyclonal anti-CTB antibody (#703; 1:1000 dilution, List Biological Labs) at 6 weeks after DC injury. […]
# [2] = target: T1, MMP-9 (Rattus norvegicus, UniProt P50282); assay: MMP-9 activity after DC injury in rats; format: in vivo; details: oral
# T1 construct: from tissue; host or cells: Sprague-Dawley rat spinal cord lesion site
# T1 sequence (P50282 108-708): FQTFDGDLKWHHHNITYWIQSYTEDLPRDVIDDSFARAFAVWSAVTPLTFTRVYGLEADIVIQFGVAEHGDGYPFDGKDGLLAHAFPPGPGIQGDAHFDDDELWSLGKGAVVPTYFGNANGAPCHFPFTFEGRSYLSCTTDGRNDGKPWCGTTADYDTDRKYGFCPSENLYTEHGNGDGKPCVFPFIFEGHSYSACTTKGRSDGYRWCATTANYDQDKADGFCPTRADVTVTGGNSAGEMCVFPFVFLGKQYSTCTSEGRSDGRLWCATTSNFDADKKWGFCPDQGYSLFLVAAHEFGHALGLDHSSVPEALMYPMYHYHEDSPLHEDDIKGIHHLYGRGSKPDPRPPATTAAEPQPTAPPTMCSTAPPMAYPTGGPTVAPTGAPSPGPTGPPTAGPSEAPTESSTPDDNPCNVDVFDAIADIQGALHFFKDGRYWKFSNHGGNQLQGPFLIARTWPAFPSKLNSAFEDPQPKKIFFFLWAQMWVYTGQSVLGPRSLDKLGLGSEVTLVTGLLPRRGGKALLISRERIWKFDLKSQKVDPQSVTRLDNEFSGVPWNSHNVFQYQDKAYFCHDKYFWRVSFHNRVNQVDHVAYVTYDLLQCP
# Procedure: (§1) The efficacy of oral AZD3342 in the DC injury model in adult Sprague-Dawley rat was also assessed. Animals were divided into 6 groups: (1), Sham (control); (2), DC crush injury+Vehicle; (3), DC crush injury+15 mg/kg AZD3342; (4), DC crush injury+75 mg/kg […]; (5), DC crush injury+375 mg/kg AZD3342; and (6), DC crush injury+Melatonin. Animals were dosed twice daily with oral AZD3342 or vehicle with the experimenters masked to the treatment conditions. These experiments were performed with n=6 rats/group and repeated on 2-3 independent occasions (total n=12-18 rats/group/test).
# (§2) The lesion site+3 mm either side for mouse (DC and CC SCI) and lesion site+5 mm either side for rat was dissected (n=6 mice/rats/group, 2 independent repeats, total n=12 mice/rats/group) and rapidly frozen in liquid N2 and stored at −80° C. until required. The enzymatic activity of MMP-9 and MMP-12 was determined in 96-well plates using the SensoLyte 520 MMP-9 and MMP-12 fluorimetric assay kit, according to the manufacturer's instructions (AnaSpec, Fremont, Calif., USA). Fluorescence intensity was measured using a Synergy H1 microplate reader (BioTek UK, Swindon, UK) at Ex/Em=490/520 nm.
# [3] = target: T2, MMP-12 (Rattus norvegicus, UniProt Q63341); assay: MMP-12 activity after DC injury in rats; format: in vivo; details: oral
# T2 construct: from tissue; host or cells: Sprague-Dawley rat spinal cord lesion site
# T2 sequence (Q63341 102-465): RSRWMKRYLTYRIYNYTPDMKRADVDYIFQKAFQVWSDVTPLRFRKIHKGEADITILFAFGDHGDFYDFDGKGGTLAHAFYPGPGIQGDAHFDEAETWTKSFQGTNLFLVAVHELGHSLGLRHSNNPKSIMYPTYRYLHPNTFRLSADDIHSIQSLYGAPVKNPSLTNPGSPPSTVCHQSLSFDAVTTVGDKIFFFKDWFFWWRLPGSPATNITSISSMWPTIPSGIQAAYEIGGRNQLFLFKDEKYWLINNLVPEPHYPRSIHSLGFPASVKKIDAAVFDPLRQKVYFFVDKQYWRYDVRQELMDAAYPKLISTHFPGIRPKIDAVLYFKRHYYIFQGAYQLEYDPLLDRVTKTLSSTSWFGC
# Procedure: as §1, §2
# [4] = tested on: rats with DC crush injury; assay: Ladder crossing (locomotor function) in rat DC model; format: in vivo; details: over 6 weeks
# Procedure: as §1
# Functional testing after DC lesion and treatment was carried out as described previously (N. D. Fagoe, C. L. Attwell, R. Eggers, L. Tuinenbreijer, D. Kouwenhoven, J. Verhaagen, M. R. Mason, Evaluation of Five Tests for Sensitivity to Functional Deficits following Cervical or Thoracic Dorsal Column Transection in the Rat. PLoS One 11, e0150141 (2016)). […]
# Horizontal ladder test: This tests the animals locomotor function and is performed on a 0.9-meter-long horizontal ladder with a diameter of 15.5 cm and randomly adjusted rungs with variable gaps of 3.5-5.0 cm. Animals were assessed traversing the ladder and the left and right rear paw slips were recorded along with the total number of steps and the mean error rate as: the number of slips/total number of steps.
Structure (SMILES),CD11b immunoreactivity at the lesion site [1],CD68 immunoreactivity at the lesion site [1],GFAP+ immunoreactivity at the lesion site [1],MMP-9 activity [2],MMP-12 activity [3],locomotor function (ladder crossing) [4]
C[C@]1(CS(=O)(=O)N2CC=C(C#Cc3cnc(C4CC4)nc3)CC2)NC(=O)NC1=O [AZD1236],significantly reduced,significantly reduced,significantly reduced,–,–,–
"C[C@]1(CS(=O)(=O)N2CCC(Oc3ccc(Cl)cn3)CC2)NC(=O)NC1=O [AZD3342, (5S)-5-[4-(5-chloro-pyridin-2-yloxy)-piperidine-1-sulfonylmethyl]-5-methylimidazolidine-2,4-dione]",–,–,–,significantly suppresses,significantly suppresses,significantly improved
